Experiments:
[1] = molecular target: GluN1a/GluN2B human receptors (Homo sapiens, UniProt Q05586+Q13224); test: Calcium influx (FLIPR) in GluN1a/GluN2B L(tk−) cells
rats = test: Respiratory effects in male rats, single oral doses; format: in vivo, rat
Procedure: Respiratory effects were investigated in rats and dogs. […] Mean Form II plasma concentration was approximately 30 μM (10600 ng/mL) at the end of infusion and approximately 4 μM (1250 ng/mL) at 60 min post-infusion.

[2] = Polymorph stability (slurry and heating, XRPD); format: physicochemical; details: between room temperature and 121° C.
Procedure: Crystalline Form II of Compound (I) was characterized using X-ray powder diffraction (XRPD) (FIG. 1A). The XRPD pattern corresponds to an anhydrous form denoted as Form II, which is highly crystalline. In addition to Form II, Compound (I) can exist as another anhydrous polymorph, denoted as Form I. The XRPD patterns of these phases are shown in FIG. 1B. A slurry experiment was performed at room temperature by adding approximately equal proportions of the two anhydrous phases to methyl-tert-butyl ether.

[3] = system: systemic blood pressure and heart rate; test: Blood pressure profile in chronically instrumented (telemetered) rats; format: in vivo, rat; details: for DAP change / PP change / SAP change / Activity change / HR change / MAP change: 1 hour post dose, vehicle subtracted, mean ± SEM; for Activity change / HR change / MAP change: listed as crystalline Form II of Compound (I)
Procedure: A single oral gavage dose was administered (volume: 5 mL/kg). […] Following the completion of the Latin square, two additional dose concentrations were evaluated (0.6 and 10 mg/kg, n=3 per group).
All IV doses were administered in manually restrained rats via tail vena-puncture. It should be noted that vehicle controls were also administered.
A 24-hour recording was performed prior to dosing (vehicle alone) and after each oral dose.

hERG current = hERG current (Homo sapiens, UniProt Q12809); test: In vitro hERG assay; format: cell-based
Sequence of hERG current (Q12809 whole entry): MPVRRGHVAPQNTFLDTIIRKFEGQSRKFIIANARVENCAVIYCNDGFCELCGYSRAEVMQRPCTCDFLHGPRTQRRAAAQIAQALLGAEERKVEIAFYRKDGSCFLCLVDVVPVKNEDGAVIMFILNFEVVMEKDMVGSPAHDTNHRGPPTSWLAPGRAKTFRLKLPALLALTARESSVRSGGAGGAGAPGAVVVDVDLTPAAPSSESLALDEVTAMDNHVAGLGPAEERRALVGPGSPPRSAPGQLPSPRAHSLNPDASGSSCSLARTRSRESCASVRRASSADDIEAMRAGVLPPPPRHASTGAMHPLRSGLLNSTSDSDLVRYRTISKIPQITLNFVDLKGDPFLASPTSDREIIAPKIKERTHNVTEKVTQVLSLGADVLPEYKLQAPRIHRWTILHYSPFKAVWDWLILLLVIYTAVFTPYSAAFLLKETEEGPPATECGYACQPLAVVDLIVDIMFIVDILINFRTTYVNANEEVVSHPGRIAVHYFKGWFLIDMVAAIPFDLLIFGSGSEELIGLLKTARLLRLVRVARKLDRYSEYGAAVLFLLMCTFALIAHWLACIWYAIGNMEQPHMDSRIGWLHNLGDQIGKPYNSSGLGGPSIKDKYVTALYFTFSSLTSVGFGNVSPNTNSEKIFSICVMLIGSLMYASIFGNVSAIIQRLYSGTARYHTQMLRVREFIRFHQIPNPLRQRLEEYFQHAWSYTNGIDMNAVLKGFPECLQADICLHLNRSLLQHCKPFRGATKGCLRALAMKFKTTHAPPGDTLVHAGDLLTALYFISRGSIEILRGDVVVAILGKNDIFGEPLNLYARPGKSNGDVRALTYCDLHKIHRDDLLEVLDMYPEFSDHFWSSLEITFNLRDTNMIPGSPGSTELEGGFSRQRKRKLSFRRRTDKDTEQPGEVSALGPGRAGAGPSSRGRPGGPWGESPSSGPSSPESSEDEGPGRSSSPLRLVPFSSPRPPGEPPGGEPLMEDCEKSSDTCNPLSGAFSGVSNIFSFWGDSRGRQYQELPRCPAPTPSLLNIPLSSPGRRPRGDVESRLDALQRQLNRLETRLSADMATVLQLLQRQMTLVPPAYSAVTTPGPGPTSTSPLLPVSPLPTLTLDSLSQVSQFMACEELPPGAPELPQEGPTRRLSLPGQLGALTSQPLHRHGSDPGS
Procedure: The potential effects of Form II of Compound (I) on the functions of the nervous system, cardiovascular system, and respiratory system were evaluated in a battery of safety pharmacology studies that included an in vitro human ether-a-go-go-related gene (hERG) assay and in vivo studies in rats, dogs, and monkeys. CNS effects were tested in rats at single doses at 15, 75, and 225 mg/kg.
Effects of Form II on the cardiovascular system were tested in several studies. Potential QTc effects were tested in vitro and in vivo.

Sprague-Dawley rats = test: Rat forced swim test 24 hours after administration; format: in vivo; details: 10 mg/kg, p.o., 24 hours before test, p<0.05
Procedure: This study aimed to evaluate the duration of the antidepressant-like effects of Form II of Compound (I) using the forced swim test in male, Sprague-Dawley rats. Clinically effective antidepressant compounds reduce immobility time and increase swimming in rodents subjected to this test. Rats received Compound (I) (10 mg/kg, p.o.) or ketamine (10 mg/kg, i.p.) and 24 hours later were subjected to testing. […] The data represent mean±SEM.

[4] = molecular target: T1, NMDA-GluN2B receptors, dog frontal cortex homogenate (Canis lupus familiaris, UniProt Q5R1P0+Q5R1P3); test: Radioligand binding, dog frontal cortex homogenate; details: geometric mean
T1 construct: frontal cortex homogenate (dog and rhesus monkey); from tissue; host or cells: dog frontal cortex homogenate
T1 sequence (Q5R1P3 27-1485, other chains not shown): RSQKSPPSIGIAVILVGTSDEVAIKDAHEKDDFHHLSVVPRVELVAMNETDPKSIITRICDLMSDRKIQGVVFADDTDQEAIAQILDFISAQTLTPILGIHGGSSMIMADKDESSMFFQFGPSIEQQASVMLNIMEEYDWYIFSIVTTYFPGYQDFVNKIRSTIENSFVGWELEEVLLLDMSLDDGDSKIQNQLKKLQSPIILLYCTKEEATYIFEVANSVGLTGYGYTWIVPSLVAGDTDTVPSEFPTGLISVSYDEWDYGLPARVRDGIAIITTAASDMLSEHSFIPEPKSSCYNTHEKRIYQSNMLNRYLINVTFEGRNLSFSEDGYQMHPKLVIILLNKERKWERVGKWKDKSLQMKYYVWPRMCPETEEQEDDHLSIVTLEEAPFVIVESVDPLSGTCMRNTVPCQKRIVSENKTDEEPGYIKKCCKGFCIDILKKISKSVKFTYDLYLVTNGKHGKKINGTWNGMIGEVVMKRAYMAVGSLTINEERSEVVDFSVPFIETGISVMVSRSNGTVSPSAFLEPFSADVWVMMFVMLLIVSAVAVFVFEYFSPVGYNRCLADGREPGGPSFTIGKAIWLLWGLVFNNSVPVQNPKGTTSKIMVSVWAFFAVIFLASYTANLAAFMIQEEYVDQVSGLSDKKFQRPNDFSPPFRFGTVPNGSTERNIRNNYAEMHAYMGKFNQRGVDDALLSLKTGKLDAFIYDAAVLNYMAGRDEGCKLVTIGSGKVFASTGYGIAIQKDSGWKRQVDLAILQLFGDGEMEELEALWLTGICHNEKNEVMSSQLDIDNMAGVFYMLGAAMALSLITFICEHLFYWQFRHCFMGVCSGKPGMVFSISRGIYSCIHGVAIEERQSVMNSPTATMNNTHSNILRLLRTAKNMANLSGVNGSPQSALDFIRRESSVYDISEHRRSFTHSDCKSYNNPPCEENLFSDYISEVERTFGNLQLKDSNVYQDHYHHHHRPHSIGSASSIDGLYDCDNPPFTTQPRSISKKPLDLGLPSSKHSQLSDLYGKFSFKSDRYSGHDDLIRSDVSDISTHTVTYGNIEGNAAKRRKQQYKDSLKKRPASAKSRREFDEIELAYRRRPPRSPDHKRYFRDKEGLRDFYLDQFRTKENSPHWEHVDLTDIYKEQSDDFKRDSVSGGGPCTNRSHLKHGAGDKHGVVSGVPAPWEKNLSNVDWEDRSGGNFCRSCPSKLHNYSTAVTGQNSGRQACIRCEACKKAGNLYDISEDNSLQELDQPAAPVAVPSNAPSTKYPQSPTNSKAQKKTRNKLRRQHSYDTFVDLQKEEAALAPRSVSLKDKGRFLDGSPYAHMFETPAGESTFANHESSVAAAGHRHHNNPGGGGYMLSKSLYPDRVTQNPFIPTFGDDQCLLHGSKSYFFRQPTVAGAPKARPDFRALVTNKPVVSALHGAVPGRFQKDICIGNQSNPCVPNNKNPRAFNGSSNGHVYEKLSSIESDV
Procedure: Radioligand binding assays were performed at room temperature (or 37° C.) in 96-well microtiter plates with a final assay volume of […] in 20 mM HEPES buffer (pH 7.4) containing 150 mM NaCl. […] Nonspecific binding was assessed using N-(3-chlorobenzyl)-4-iodobenzimidamide (final concentration, 10 μM), and total binding was measured by addition of DMSO (final concentration, 2%). L(tk−) cell membranes expressing human GluN1a/GluN2B receptors (final concentration, 40 pM) and [^3H]-[(E)-N1-(2-methoxybenzyl)-cinnamamidine] (final concentration, 1 nM) were added to all wells of the microtiter plate. After 3 h (24 h or 48 h) of incubation at room temperature (or 37° C.), samples were filtered through Packard GF/B filters (presoaked in 0.05% polyethylenimine [PEI; Sigma P-3143]) and washed 10 times with 1 mL of cold 20 mM HEPES buffer per wash. After vacuum drying of the filter plates, 50 μL of Packard Microscint-20 was added and the bound radioactivity determined in a Packard TopCount.
Analogous binding experiments, to those described above for the cloned human receptor expressed in L(tk−) cells, were also performed using whole brain homogenate (rat), frontal cortex homogenate (dog and rhesus monkey), and temporal cortex homogenate (human).

[5] = 1 mg/kg PO in β1 AR blocked animals (atenolol 1 mg/kg), 1 hour post dosing

Sequence of GluN1a/GluN2B human receptors (Q13224 27-1484, other chains not shown): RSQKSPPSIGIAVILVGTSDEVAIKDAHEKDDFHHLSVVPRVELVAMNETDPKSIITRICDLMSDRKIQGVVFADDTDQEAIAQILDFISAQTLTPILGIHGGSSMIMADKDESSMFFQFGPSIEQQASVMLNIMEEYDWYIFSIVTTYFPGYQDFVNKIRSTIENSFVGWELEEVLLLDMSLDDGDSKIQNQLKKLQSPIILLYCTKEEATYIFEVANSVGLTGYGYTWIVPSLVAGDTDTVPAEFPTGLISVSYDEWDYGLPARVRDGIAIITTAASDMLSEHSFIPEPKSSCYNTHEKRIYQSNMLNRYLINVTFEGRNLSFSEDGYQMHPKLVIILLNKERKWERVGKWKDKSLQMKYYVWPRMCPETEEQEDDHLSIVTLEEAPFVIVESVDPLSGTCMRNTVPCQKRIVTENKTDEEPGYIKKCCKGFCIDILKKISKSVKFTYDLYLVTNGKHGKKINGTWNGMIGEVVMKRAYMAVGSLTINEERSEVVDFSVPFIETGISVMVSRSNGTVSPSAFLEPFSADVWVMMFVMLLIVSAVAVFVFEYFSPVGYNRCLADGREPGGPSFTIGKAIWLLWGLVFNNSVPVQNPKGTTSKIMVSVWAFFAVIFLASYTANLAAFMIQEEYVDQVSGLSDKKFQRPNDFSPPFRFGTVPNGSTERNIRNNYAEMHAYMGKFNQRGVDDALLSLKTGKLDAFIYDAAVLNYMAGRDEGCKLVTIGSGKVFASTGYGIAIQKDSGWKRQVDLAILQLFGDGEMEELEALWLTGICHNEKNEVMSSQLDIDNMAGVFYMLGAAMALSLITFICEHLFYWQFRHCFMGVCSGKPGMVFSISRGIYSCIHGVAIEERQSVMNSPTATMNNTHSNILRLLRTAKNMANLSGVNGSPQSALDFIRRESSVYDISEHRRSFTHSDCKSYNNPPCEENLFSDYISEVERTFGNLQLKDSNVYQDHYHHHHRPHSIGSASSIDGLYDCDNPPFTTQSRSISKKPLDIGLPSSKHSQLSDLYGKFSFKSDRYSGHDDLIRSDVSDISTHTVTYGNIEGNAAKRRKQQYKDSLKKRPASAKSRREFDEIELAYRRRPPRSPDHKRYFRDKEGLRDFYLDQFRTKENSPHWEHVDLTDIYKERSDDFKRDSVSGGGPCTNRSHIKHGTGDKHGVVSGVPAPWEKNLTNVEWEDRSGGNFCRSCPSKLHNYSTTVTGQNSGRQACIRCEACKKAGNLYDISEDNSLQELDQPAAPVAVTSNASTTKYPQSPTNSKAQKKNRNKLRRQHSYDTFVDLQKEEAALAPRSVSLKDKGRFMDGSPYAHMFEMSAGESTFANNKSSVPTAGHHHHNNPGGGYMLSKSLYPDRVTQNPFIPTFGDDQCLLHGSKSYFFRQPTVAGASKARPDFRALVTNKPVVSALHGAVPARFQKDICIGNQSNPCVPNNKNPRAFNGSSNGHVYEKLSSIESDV

Cc1ccc(COC(=O)N2CC[C@H](CNc3ncccn3)[C@H](F)C2)cc1 [Form II, 4-methylbenzyl (3S, 4R)-3-fluoro-4-[(pyrimidin-2-ylamino)methyl] piperidine-1-carboxylate]
IC50 [1]: 3.6 nM | respiratory function (respiratory rate, tidal volume, minute ventilation, PenH) (rats; 15, 75, and 225 mg/kg oral): respiratory stimulation | respiratory function at end of 6-h monitoring period (rats; ≥75 mg/kg oral): remained altered | thermodynamic stability of polymorph [2]: thermodynamically stable form | DAP change ([3]; 0.3 mg/kg PO): 4.1 ± 0.9 mmHg | PP change ([3]; 0.3 mg/kg PO): 0.1 ± 1.0 mmHg | SAP change ([3]; 0.3 mg/kg PO): 4.3 ± 1.2 mmHg | Activity change ([3]; 0.3 mg/kg PO): 0.012±0.025 arbitrary unit | HR change ([3]; 0.3 mg/kg PO): 15±10 bpm | MAP change ([3]; 0.3 mg/kg PO): 4.2±0.9 mmHg | DAP change ([3]; 0.6 mg/kg PO): 7.8 ± 1.1 mmHg | PP change ([3]; 0.6 mg/kg PO): −1.5 ± 1.4 mmHg | SAP change ([3]; 0.6 mg/kg PO): 6.3 ± 1.6 mmHg | Activity change ([3]; 0.6 mg/kg PO): 0.003±0.033 arbitrary unit | HR change ([3]; 0.6 mg/kg PO): 10±15 bpm | MAP change ([3]; 0.6 mg/kg PO): 6.8±1.2 mmHg | MAP increase with dosing ([3]; 1 mg/kg PO in the setting of α1 AR blockade (prazosin 200 μg/kg)): 11.3±2.0 mmHg | HR change vs pre-blockade baseline ([3]; 1 mg/kg PO in the setting of α1 AR blockade (prazosin 200 μg/kg), 1 hour post dosing): 118±20 bpm | HR increase post-dosing ([3]; 1 mg/kg PO in β1 AR blocked animals (atenolol 1 mg/kg)): 53±17 bpm | HR change vs pre-blockade baseline [3, 5]: −7±17 bpm | MAP change vs pre-blockade baseline [3, 5]: 5.8±4.8 mmHg | DAP change ([3]; 1.0 mg/kg PO): 15.2 ± 3.0 mmHg | PP change ([3]; 1.0 mg/kg PO): 1.4 ± 1.1 mmHg | SAP change ([3]; 1.0 mg/kg PO): 16.8 ± 3.7 mmHg | Activity change ([3]; 1.0 mg/kg PO): 0.049±0.037 arbitrary unit | HR change ([3]; 1.0 mg/kg PO): 34±13 bpm | MAP change ([3]; 1.0 mg/kg PO): 15.7±3.2 mmHg | DAP change ([3]; 3.0 mg/kg PO): 15.0 ± 2.0 mmHg | PP change ([3]; 3.0 mg/kg PO): 4.0 ± 0.9 mmHg | SAP change ([3]; 3.0 mg/kg PO): 19.2 ± 2.4 mmHg | Activity change ([3]; 3.0 mg/kg PO): 0.174±0.048 arbitrary unit | HR change ([3]; 3.0 mg/kg PO): 66±9 bpm | MAP change ([3]; 3.0 mg/kg PO): 17.1±2.3 mmHg | DAP change ([3]; 10 mg/kg PO): 17.3 ± 1.9 mmHg | PP change ([3]; 10 mg/kg PO): 3.1 ± 1.3 mmHg | SAP change ([3]; 10 mg/kg PO): 20.7 ± 2.4 mmHg | Activity change ([3]; 10 mg/kg PO): 0.232±0.057 arbitrary unit | HR change ([3]; 10 mg/kg PO): 71±25 bpm | MAP change ([3]; 10 mg/kg PO): 19.1±2.4 mmHg | IC50 (hERG current): ~13000 nM | immobility (Sprague-Dawley rats): reduced immobility | swim time (Sprague-Dawley rats): increased swim time significantly | Ki ([4]; 37° C.): 13 nM | Ki ([4]; room temp.): 3.2 nM

— US12410153B2, “Compounds, compositions and methods” (Avalo Therapeutics, Inc., priority 2014, dated 2025)
